# Measurements reported in patent US20050180954A1, “Drug for treating bone disorders” (priority 1995, published 2005).
# Columns and labels:
# Format in all cases: cell-based, mouse
# [1] = system: osteoclast like cells from bone marrow cells of mice of ddy strain; experiment: Formation of osteoclast like cells from bone marrow cells of mice of ddy strain
# Description: Bone marrow cells were prepared in accordance with the method by Takahashi et al (Takahashi, N. et al., Endocrinology, 122, 1373, 1988). Male mice of ddy strain of 7 weeks old were exanguinated to death under ether anesthesia and the femur and the tibia of hind legs were collected from each mouse. The connective tissues on the surfaces of the bones were carefully removed, and both ends of each bone were cut off with scissors. The bone marrow cells were suspended in α-Minimum Essential Medium (α-MEM, Nissui Pharmaceuticals Co.) containing 10% pre-colostrum new born calf serum (Mitsubishi Chemical, hereinafter referred to as “JCS” for short) and the suspension was flushed out through a 25 G needle attached to a syringe to collect the suspension in a centrifugal tube. The collected suspension was washed by centrifugation in the same medium at 2000 rpm at 4° C. for 5 minutes. The precipitated cells were dispersed in the above-mentioned medium and the washing by centrifugation was repeated twice, thereby preparing bone marrow cells. Murine IFN-α (hereinafter referred to as “MuIFNα” for short), Lot. B13010, 106 units/ml/vial (Calbiochem-Novabiochem International, San Diego, Calif.), murine IFN-β (hereinafter referred to as “MuIFNβ” for short), Lot M-0034, 10 units/ml/vial (Toray Industries, Inc.) and murine IFNγ (hereinafter referred to as “MuIFNγ” for short), Lot 254F3, 2.06×10^6 units/ml (Genentech, Calif.) were respectively dissolved in 10% JCS-containing α-MEM (Nissui Pharmaceuticals Co.) to the desired concentrations. Active vitamin D3 ([…], Wako Pure Chemical Industries, Ltd., hereinafter referred to as “Vit D3” for short) was dissolved in argon-saturated ethanol, and the obtained solution was diluted so as to attain the final ethanol concentration of 0.1% in all of the culture systems.
# (§1) The number of viable bone marrow cells was counted using tripam blue dye exclusion test and the bone marrow cells were diluted with α-MEM containing 10% JCS, 10^−8M Vit D3, 10^−7 M dexamethasone to a population density of 1.5×10^6 cells/ml, followed by placing the resulting suspension in each well in 24-well plates in an amount of 0.45 ml/well. To each well, 50 μl of the medium containing varying concentration of IFN was added to make the volume to 0.5 ml/well and culturing was begun. At every three days, 0.4 ml of the culture medium was removed from each well and 0.4 ml of fresh medium (the above-mentioned medium containing the respective concentration of IFN) was added. On Day 8 from the beginning of the culturing, the medium was removed and the cells were fixed with mixed solution of ethyl alcohol and diethyl ether (1:1) and the cells were stained with tartrate resistant acid phosphatase (TRAP), followed by counting TRAP positive multinuclear cells with a phase contrast microscope. […] The inhibition effect of IFNγ was stronger than that of IFNβ. That is, the inhibition concentration IC50 of IFNγ was not more than 0.1 units/ml, and that of IFNβ was 0.2 units/ml.
# The effects of the three murine IFNs, that is, MuIFNβ, γ and α in terms of abilities to inhibit formation of osteoclast like cells from bone marrow cells in mice of ddy strain were compared. The test was carried out as in Example 1. All of the murine IFNs inhibited the formation of osteoclast like cells, and the effect was strong in the order of γ, β and α. […] Thus, the activity of IFNα to inhibit formation of osteoclasts was about 1/20 of that of IFNβ and about not more than 1/100 of that of IFNγ.
# MC3T3-E1 cells [2] = experiment: Proliferation of murine osteoblastic cells MC3T3-E1 (in vitro single administration)
# Description: Murine osteoblast like cells MC3T3-E1 originated from C 57 BL/6 mouse (Kodama et al., Jap. J. Oral Biol., 23, 899, 1982) were washed with PBS(−) and the cells were dissociated by incubation in PBS(−) containing 0.1% pronase (Actinase E, Kaken Pharmaceuticals Co.), followed by dispersing the cells in α-MEM containing 10% JCS and 50 μg/ml of L-ascorbic acid (ASA). The ability to promote proliferation of cells was evaluated as follows. That is, MC3T3-E1 cells were placed in each well in 24-well plates (Corning) in an amount of 5000 cells/well. Then each IFN dilution was added to each well in an amount of 0.1 ml/well, and the culturing was begun. On Day 2, the medium was removed and the each IFN dilution was added in an amount of 0.5 ml/well (total amount of liquid: 0.5 ml/well). On Day 6, the medium was removed and the cells were washed with PBS(−) and a mixed enzyme solution of 0.1% pronase/0.1% collagenase was added to each well in an amount of 200 μl/well, followed by allowing to react at 37° C. for 15 minutes. Then α-MEM containing 10% fetal calf serum (Gibco, hereinafter referred to as “FCS” for short) was added in an amount of 300 μl/well to disperse the cells therein and the number of the cells was counted with a Coulter counter.
# MC3T3-E1 cells [3] = experiment: Quantification of calcium in calcified foci of MC3T3-E1; details: MC3T3-E1, Day 14
# Description: MC3T3-E1 cells were placed in each well in 24-well plates in an amount of 50,000 cells/well and cultured to confluency. The medium was removed and fresh α-MEM containing 10% JCS, 50 μg/ml of L-ascorbic acid and 10 mM β-glycerophosphate was added in an amount of 0.9 ml/well, followed by adding 0.1 ml/well of medium containing varying concentration of IFN. The medium was replaced with IFN-free medium every 4 days. On Day 14, the medium was removed and the cells were lightly washed with Hank's solution. Anhydrous ethanol was added in an amount of 1 ml/well and fixation was carried out at room temperature for 15 minuets. Then the anhydrous ethanol was replaced with fresh anhydrous ethanol in an amount of 1 ml/well and 5 minutes later, each well was dried in the air. Then 1N hydrochloric acid was added in an amount of 1 ml/well and extraction was carried out at room temperature for 30 minutes. The total contents of each well were transferred to an Eppendorf tube and centrifuged at 1800×g at 4° C. for 10 minutes The amount of calcium in the supernatant was measured by Calcium C Test Wako and the amount of inorganic phosphorus in the supernatant was measured by Phospha B Test Wako. […] The IC50 value was as low as about 10 units/ml (FIG. 5).
# [4] = system: osteoclast like cells from bone marrow cells of mice of C 57 BL/6 strain; experiment: Formation of osteoclast like cells from bone marrow cells of mice of C 57 BL/6 strain; details: Example 2, C 57 BL/6 strain bone marrow cells
# Description: as §1
# In place of mice of ddy strain, male mice of C 57 BL/6 of 7 weeks old were used. The mice were exanguinated to death under ether anesthesia and the femur and the tibia of hind legs were collected from each mouse. The connective tissues on the surfaces of the bones were carefully removed, and both ends of each bone were cut off with scissors. The bone marrow cells were suspended in α-MEM containing 10% JCS and the suspension was flushed out through a 25 G needle attached to a syringe to collect the suspension in a centrifugal tube. The collected suspension was washed by centrifugation in the same medium at 2000 rpm at 4° C. for 5 minutes. The precipitated cells were dispersed in the above-mentioned medium and the washing by centrifugation was repeated twice. Formation of osteoclast like cells was measured by the same method as in Example 1.
# MC3T3-E1 cells [5] = experiment: Mineralization of murine osteoblasts, Von Kossa stain (in vitro single administration); details: Day 14
# Description: As the parameters for evaluation of differentiation ability, alkaline phosphatase (ALPase) and mineralization were employed. Detection of alkaline phosphatase which is a marker of differentiation of osteoblasts was carried out on Day 8 from the beginning of the culturing by staining method. Evaluation of mineralization was carried out as follows. That is, MC3T3-E1 cells were placed in each well of 24-well plates in an amount of 50,000 cells/ml (10 times in the case of anti-cell test in Example 3). On Day 4, after confirming that the cells sufficiently reached confluency, the medium was discarded and fresh α-MEM containing 10% JCS, 50 μg/ml of L-ascorbic acid and 10 mM β-glycerophosphate was added in an amount of 0.9 ml/well, followed by adding medium containing varying concentration of IFN. Four days later, the medium was replaced with IFN-free medium, and the medium was replaced with IFN-free medium every 4 days. On Day 14, Von Kossa stain was performed to visualize the calcified foci. Expression of alkaline phosphatase activity which is a differentiation marker is an indispensable step to the subsequent mineralization.
substance,measurement,setting,value
"MuIFNγ: murine interferon γ, standard product Lot 254F3, provided by Genentech",inhibition of formation of osteoclast like cells,"[1]; Example 1, Day 8, TRAP positive multinuclear cells",strongly inhibited formation of osteoclast like cells
same,inhibition concentration IC50 of formation of osteoclast like cells,"[1]; Example 1, Vit D3 + dexamethasone, Day 8, TRAP positive multinuclear cells",not more than 0.1 units/ml
same,IC50 of inhibition of formation of osteoclast like cells,[1]; Example 8 comparison of three murine IFNs,not more than 0.1 units/ml
same,inhibition of proliferation of MC3T3-E1 cells,"MC3T3-E1 cells [2]; 10,000 units/ml, cell count on Day 6",about 30%
same,dose from which slight inhibition of proliferation was observed,"MC3T3-E1 cells [2]; MC3T3-E1, Day 6",1 unit/ml
same,calcium deposition smaller than the control,MC3T3-E1 cells [3]; 1000 units/ml,70%
same,IC50 value of inhibition of calcium deposition,MC3T3-E1 cells [3],about 10 units/ml
same,inhibition of formation of osteoclast like cells,[4],strongly inhibited formation of osteoclast like cells
same,IC50 of formation inhibition of osteoclast like cells,[4]; Day 8,1.5 units/ml
same,concentration at which the inhibition effect on mineralization was expressed,MC3T3-E1 cells [5],10 units/ml
same,"influence on mineralization (calcified foci, Von Kossa stain)",MC3T3-E1 cells [5],strong and dose dependent inhibition action on mineralization
same,IC50 value of inhibition of mineralization,MC3T3-E1 cells [5]; Von Kossa,3-4 units/ml
